Earlier results, collected in patent US5177064A, “Targeted drug delivery via phosphonate derivatives” (University of Florida, priority 1990, dated 1993).
≈ marks a conversion by molar mass, not a printed value.

Experiments:
[1] = system: encephalitis
[2] = human, in vivo
[3] = system: encephalitis; conditions: treatment of encephalitis in vitro and in vivo
[4] = humans
[5] = at 37° C.
[6] = system: HCMV; conditions: in vitro; read-out: IC50 against HCMV
[7] = intravenous, biphasic elimination

Compound: Nc1ncnc2c1ncn2[C@@H]1O[C@H](CO)[C@@H](O)[C@@H]1O [Ara-A, 9-β-D-arabinofuranosyladenine]
- log P (octanol/water) (octanol/water): negative

Compound: NC(=O)c1ncn([C@@H]2O[C@H](CO)[C@@H](O)[C@H]2O)n1 [ribavirin, 1-β-D-ribofuranosyl-1,2,4-triazole-3-carboxamide]
- log P: 2.06

Compound: Cc1cn([C@@H]2O[C@H](CO)[C@@H](O)[C@@H]2F)c(=O)[nH]c1=O [FMAU]
- doses producing irreversible neurological damage ([1]; in vivo): greater than 32 mg
- therapeutic index ([1]; treating encephalitis): greater than 3,000

Compound: Cc1cn([C@H]2C[C@H](N=[N+]=[N-])[C@@H](CO)O2)c(=O)[nH]c1=O [AZT, azidothymidine]
- bioavailability [2]: about 60%

Compound: Nc1nc(O)c2ncn(COC(CO)CO)c2n1 [DHPG, Dihydroxypropoxymethylgaunine]
- effectiveness relative to acyclovir [3]: at least 100 fold
- drug excreted unchanged by the kidneys [4]: 99%
- oral bioavailability ([4]; based on urinary excretion): 3-4.6%
- α-phase half-life [4, 7]: 0.23 h
- β-phase half-life [4, 7]: 2.53 h
- aqueous solubility [5]: 5100 µg/mL (≈ 20 mM)
- IC50 [6]: ~2500 nM
